The structures appear in SMILES notation. pIC50: −log10 of the molar value.

Sequence of human SGLT2 (P31639 whole entry): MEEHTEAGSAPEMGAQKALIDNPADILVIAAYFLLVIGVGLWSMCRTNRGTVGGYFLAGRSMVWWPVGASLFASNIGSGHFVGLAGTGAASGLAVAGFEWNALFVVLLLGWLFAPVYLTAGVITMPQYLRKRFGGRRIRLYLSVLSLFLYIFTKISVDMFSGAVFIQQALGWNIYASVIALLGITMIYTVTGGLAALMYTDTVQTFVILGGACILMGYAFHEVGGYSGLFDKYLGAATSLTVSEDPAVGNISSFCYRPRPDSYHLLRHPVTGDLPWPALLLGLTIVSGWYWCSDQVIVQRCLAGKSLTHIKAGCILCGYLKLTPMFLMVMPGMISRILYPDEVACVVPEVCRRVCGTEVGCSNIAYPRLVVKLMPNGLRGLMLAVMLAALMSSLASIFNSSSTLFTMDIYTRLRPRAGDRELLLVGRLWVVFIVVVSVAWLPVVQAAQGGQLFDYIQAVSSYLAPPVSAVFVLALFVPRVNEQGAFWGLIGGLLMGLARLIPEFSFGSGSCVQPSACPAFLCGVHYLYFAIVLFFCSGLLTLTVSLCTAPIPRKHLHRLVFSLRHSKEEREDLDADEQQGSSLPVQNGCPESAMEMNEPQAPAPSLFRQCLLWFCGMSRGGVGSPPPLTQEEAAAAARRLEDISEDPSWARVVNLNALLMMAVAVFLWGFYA

This experiment deals with human SGLT2 (Homo sapiens (Human), UniProt P31639). The experiment in a line: Inhibitory effects on human SGLT2 activities (14C-AMG uptake, sodium-dependent glucose transport assay). Format: cell-based. As to conditions: CHO cells stably expressing hSGLT2, 37° C., 2 h, single determinations. An outline of the steps:
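CHO cells stably expressing hSGLT2 were preincubated 10 min at 37 °C in choline (Na+-free) buffer, then exposed 2 h at 37 °C to compound in Na+ uptake buffer with 8 μM 14C-AMG and 1 mM unlabeled AMG. Radioactivity was scintillation counted; IC50 came from nonlinear regression.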
For orientation: pIC50 means −log10 of the IC50, conventionally taken in molar units. A high value points to a small IC50. For `C=Cc1ccc(Cc2cc([C@@H]3O[C@H](CO)[C@@H](O)[C@H](O)[C@H]3O)c3c(c2Cl)CCC3)cc1` [Example E117, (2S,3R,4R,5S,6R)-2-(7-Chloro-6-(4-vinylbenzyl)-2,3-dihydro-1H-inden-4-yl)-6-(hydroxymethyl)tetrahydro-2H-pyran-3,4,5-triol], the pIC50 was 9.13.
For `OC[C@H]1O[C@@H](c2ccc(Cl)c(Cc3ccc4c(c3)CCCC4)c2)[C@H](O)[C@@H](O)[C@@H]1O` [Example E060, (2S,3R,4R,5S,6R)-2-(4-Chloro-3-((5,6,7,8-tetrahydronaphthalen-2-yl)methyl)phenyl)-6-(hydroxymethyl)-tetrahydro-2H-pyran-3,4,5-triol] the value was 8.52; for `CCOc1ccc(Cc2cc([C@@H]3O[C@H](S(C)(=O)=O)[C@@H](O)[C@H](O)[C@H]3O)c(OC)cc2Cl)cc1` [Example E112, (2S,3R,4R,5S,6R)-2-(4-Chloro-5-(4-ethoxybenzyl)-2-methoxyphenyl)-6-(methylsulfonyl)tetrahydro-2H-pyran-3,4,5-triol], 8.13; for `OC[C@H]1O[C@@H](c2cc(Cc3ccc4c(c3)OCCO4)c(Cl)c3c2CCO3)[C@H](O)[C@@H](O)[C@@H]1O` [Example E045, (2S,3R,4R,5S,6R)-2-(7-Chloro-6-((2,3-dihydrobenzo[b][1,4]dioxin-6-yl)methyl)-2,3-dihydrobenzofuran-4-yl)-6-(hydroxymethyl)tetrahydro-2H-pyran-3,4,5-triol], 8.86.
As to `CCOc1ccc(Cc2cc([C@@H]3O[C@H](CO)[C@@H](O)[C@H](O)[C@H]3O)c3c(c2Cl)OC(C)C3)cc1` (stereo partly drawn) [Example E135, (2S,3R,4R,5S,6R)-2-(7-Chloro-6-(4-ethoxybenzyl)-2-methyl-2,3-dihydrobenzofuran-4-yl)-6-(hydroxymethyl)tetrahydro-2H-pyran-3,4,5-triol], the pIC50 was 8.78.
In the case of `CCc1ccc(Cc2cc([C@@H]3O[C@H](CO)[C@@H](O)[C@H](O)[C@H]3O)cc(-c3ccccc3)c2C)cc1` [Example E076], the pIC50 was 8.02.
For `CCc1ccc(Cc2cc([C@@H]3O[C@H](CO)[C@@H](O)[C@H](O)[C@H]3O)c3c(c2Br)CCC3)cc1` [Example E004, (2S,3R,4R,5S,6R)-2-(7-Bromo-6-(4-ethylbenzyl)-2,3-dihydro-1H-inden-4-yl)-6-(hydroxymethyl)tetrahydro-2H-pyran-3,4,5-triol] the value was 9.18; for `OC[C@H]1O[C@@H](c2ccc(Cl)c(Cc3ccc(N4CCOCC4)cc3)c2)[C@H](O)[C@@H](O)[C@@H]1O` [Example E211, (2S,3R,4R,5S,6R)-2-(4-Chloro-3-(4-morpholinobenzyl)phenyl)-6-(hydroxymethyl)tetrahydro-2H-pyran-3,4,5-triol], 8.04.
Under `CC(C)c1ccc(Cc2cc([C@@H]3O[C@H](CO)[C@@H](O)[C@H](O)[C@H]3O)c3c(c2Cl)OCC3)cc1` [Example E181, (2S,3R,4R,5S,6R)-2-(7-Chloro-6-(4-isopropylbenzyl)-2,3-dihydrobenzofuran-4-yl)-6-(hydroxymethyl)tetrahydro-2H-pyran-3,4,5-triol] stands 9.10; under `COc1ccc(Cc2cc([C@@H]3O[C@H](CO)[C@@H](O)[C@H](O)[C@H]3O)c3c(c2Cl)C(C)CO3)cc1` (stereo partly drawn) [Example E216, (2S,3R,4R,5S,6R)-2-(4-Chloro-5-(4-methoxybenzyl)-3-methyl-2,3-dihydrobenzofuran-7-yl)-6-(hydroxymethyl)tetrahydro-2H-pyran-3,4,5-triol], 8.91; under `CCOc1ccc(Cc2cc([C@@H]3O[C@H](CO)[C@@H](O)[C@H](O)[C@H]3O)cc(-c3ccsc3)c2C)cc1` [Example E089, (2S,3R,4R,5S,6R)-2-(3-(4-Ethoxybenzyl)-4-methyl-5-(thiophen-3-yl)phenyl)-6-(hydroxymethyl)-tetrahydro-2H-pyran-3,4,5-triol], 8.59.
Under `CCc1ccc(Cc2cc([C@@H]3O[C@H](CO)[C@@H](O)[C@H](O)[C@H]3O)c3c(c2Cl)OCO3)cc1` [Example E162, (2S,3R,4R,5S,6R)-2-(7-Chloro-6-(4-ethylbenzyl)benzo[d][1,3]dioxol-4-yl)-6-(hydroxymethyl)tetrahydro-2H-pyran-3,4,5-triol] stands 9.39; under `O=S1(=O)CCOc2ccc(Cc3cc([C@@H]4O[C@H](CO)[C@@H](O)[C@H](O)[C@H]4O)ccc3Cl)cc21` [Example E073, (2S,3R,4R,5S,6R)-2-(4-Chloro-3-((1,1-dioxo-2,3-dihydrobenzo[b][1,4]oxathiin-6-yl)methyl)phenyl)-6-(hydroxymethyl)-tetrahydro-2H-pyran-3,4,5-triol], 7.11.
`CSc1ccc(Cc2cc([C@@H]3O[C@H](CO)[C@@H](O)[C@H](O)[C@H]3O)c3c(c2Cl)CCCO3)cc1` [Example E154, (2S,3R,4R,5S,6R)-2-(5-Chloro-6-(4-(methylthio)benzyl)chroman-8-yl)-6-(hydroxymethyl)tetrahydro-2H-pyran-3,4,5-triol]: the pIC50 is 9.00.
Consider `CCOc1ccc(Cc2cc3c(c([C@@H]4O[C@H](CO)[C@@H](O)[C@H](O)[C@H]4O)c2)CCC3)cc1` [Example E002, (2S,3R,4R,5S,6R)-2-(6-(4-Ethoxybenzyl)-2,3-dihydro-1H-inden-4-yl)-6-(hydroxymethyl)tetrahydro-2H-pyran-3,4,5-triol], for which the pIC50 is 8.05.
For `CCOc1ccc(Cc2cc([C@@H]3O[C@H](S(C)(=O)=O)[C@@H](O)[C@H](O)[C@H]3O)c3c(c2Cl)CC(C)O3)cc1` (stereo partly drawn) [Example E146, (2S,3R,4R,5S,6R)-2-(4-Chloro-5-(4-ethoxybenzyl)-2-methyl-2,3-dihydrobenzofuran-7-yl)-6-(methylsulfonyl)tetrahydro-2H-pyran-3,4,5-triol] the value was 8.46; for `COc1ccc(Cc2cc([C@@H]3O[C@H](CO)[C@@H](O)[C@H](O)[C@H]3O)c3c(c2Cl)CC(C)O3)cc1` (stereo partly drawn) [Example E131, (2S,3R,4R,5S,6R)-2-(4-Chloro-5-(4-methoxybenzyl)-2-methyl-2,3-dihydrobenzofuran-7-yl)-6-(hydroxymethyl)tetrahydro-2H-pyran-3,4,5-triol], 8.99; for `OC[C@H]1O[C@@H](c2ccc(Cl)c(Cc3ccc4c(c3)OCCO4)c2)[C@H](O)[C@@H](O)[C@@H]1O` [Example E049, (2S,3R,4R,5S,6R)-2-(4-Chloro-3-((2,3-dihydrobenzo[b][1,4]dioxin-6-yl)methyl)phenyl)-6-(hydroxymethyl)-tetrahydro-2H-pyran-3,4,5-triol], 8.91.
Under `CCOc1ccc(Cc2cc([C@@H]3O[C@H](CO)[C@@H](O)[C@H](O)[C@H]3O)c3c(c2Cl)OCC3(C)C)cc1` [Example E225, (2S,3R,4R,5S,6R)-2-(7-Chloro-6-(4-ethoxybenzyl)-3,3-dimethyl-2,3-dihydrobenzofuran-4-yl)-6-(hydroxymethyl)-tetrahydro-2H-pyran-3,4,5-triol] stands 8.74; under `COc1ccc(Cc2cc([C@@H]3O[C@H](CO)[C@@H](O)[C@H](O)[C@H]3O)c3c(c2Cl)CCC3)cc1` [Example E005, (2S,3R,4R,5S,6R)-2-(7-Chloro-6-(4-methoxybenzyl)-2,3-dihydro-1H-inden-4-yl)-6-(hydroxymethyl)tetrahydro-2H-pyran-3,4,5-triol], 9.17.
For `COc1ccc(Cc2cc([C@@H]3O[C@H](CO)[C@@H](O)[C@H](O)[C@H]3O)c3c(c2Cl)CCCO3)cc1` [Example E016, (2S,3R,4R,5S,6R)-2-(5-Chloro-6-(4-methoxybenzyl)chroman-8-yl)-6-(hydroxymethyl)tetrahydro-2H-pyran-3,4,5-triol] the value was 9.01; for `CCc1ccc(Cc2cc([C@@H]3O[C@H](CO)[C@@H](O)[C@H](O)[C@H]3O)c3c(c2Cl)CC(C)O3)cc1` (stereo partly drawn) [Example E132, (2S,3R,4R,5S,6R)-2-(4-Chloro-5-(4-ethylbenzyl)-2-methyl-2,3-dihydrobenzofuran-7-yl)-6-(hydroxymethyl)tetrahydro-2H-pyran-3,4,5-triol], 9.15.
On to `CCOc1ccc(Cc2cc([C@@H]3O[C@H](C(C)O)[C@@H](O)[C@H](O)[C@H]3O)c3c(c2Cl)OCC3)cc1` (stereo partly drawn) [Example E127, (2S,3R,4R,5S,6R)-2-(7-Chloro-6-(4-ethoxybenzyl)-2,3-dihydrobenzofuran-4-yl)-6-(1-hydroxyethyl)tetrahydro-2H-pyran-3,4,5-triol], for which the pIC50 is 8.87. Compared with the last compound, the pIC50 is 0.28 log units lower.
Turning to `OC[C@H]1O[C@@H](c2cc(Cc3ccc(Cl)cc3)c(Cl)c3c2OCC3)[C@H](O)[C@@H](O)[C@@H]1O` [Example E123, (2S,3R,4R,5S,6R)-2-(4-Chloro-5-(4-chlorobenzyl)-2,3-dihydrobenzofuran-7-yl)-6-(hydroxymethyl)tetrahydro-2H-pyran-3,4,5-triol], the pIC50 is 8.74.
As to `OC[C@H]1O[C@@H](c2cc(Cc3ccc(C4CC4)cc3)c(Cl)c3c2CCO3)[C@H](O)[C@@H](O)[C@@H]1O` [Example E172, (2S,3R,4R,5S,6R)-2-(7-Chloro-6-(4-cyclopropylbenzyl)-2,3-dihydrobenzofuran-4-yl)-6-(hydroxymethyl)tetrahydro-2H-pyran-3,4,5-triol], the pIC50 is 9.33.
For `OC[C@H]1O[C@@H](c2cc(Cc3ccc4c(c3)OCCO4)c(C(F)F)c3c2CCC3)[C@H](O)[C@@H](O)[C@@H]1O` [Example E108, (2S,3R,4R,5S,6R)-2-(7-(Difluoromethyl)-6-((2,3-dihydrobenzo[b][1,4]dioxin-6-yl)methyl)-2,3-dihydro-1H-inden-4-yl)-6-(hydroxymethyl)tetrahydro-2H-pyran-3,4,5-triol] the value was 8.90; for `COc1ccc(Cc2cc([C@@H]3O[C@H](CO)[C@@H](O)[C@H](O)[C@H]3O)c3c(c2Cl)C(O)CO3)cc1` (stereo partly drawn) [Example E196, (2S,3R,4R,5S,6R)-2-(4-Chloro-3-hydroxy-5-(4-methoxybenzyl)-2,3-dihydrobenzofuran-7-yl)-6-(hydroxymethyl)tetrahydro-2H-pyran-3,4,5-triol], 8.45.

The values above are taken from US9034921B2, “Diphenylmethane derivatives as SGLT2 inhibitors” (GREEN CROSS CORPORATION, priority 2011, dated 2015).
